# From US9902702B2, “Spirocycloheptanes as inhibitors of rock” (BRISTOL-MYERS SQUIBB COMPANY, priority 2014, dated 2018)
# Molecular target: ROCK2 (Homo sapiens, UniProt O75116)
# Assay: ROCK assay: phosphorylation of FITC peptide substrate, LABCHIP 3000 mobility shift
# Format: biochemical
# Conditions: 5 μM ATP, 1.5 μM peptide substrate; read-out: ROCK2 Activity (ROCK IC50 range)
# Procedure, shortened: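 Rho kinase variant phosphorylates 1.5 μM FITC-AHA-AKRRRLSSLRA-OH with 5 μM ATP in 20 mM HEPES pH 7.5, 20 mM MgCl2, 0.015% Brij-35, 4 mM DTT, DMSO <2%. EDTA stops the reaction, and phospho and non-phospho peptides are resolved by LabChip 3000 mobility shift. IC50 from dose-response curve fit.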
# ROCK2, sequence (O75116 whole entry, species assumed): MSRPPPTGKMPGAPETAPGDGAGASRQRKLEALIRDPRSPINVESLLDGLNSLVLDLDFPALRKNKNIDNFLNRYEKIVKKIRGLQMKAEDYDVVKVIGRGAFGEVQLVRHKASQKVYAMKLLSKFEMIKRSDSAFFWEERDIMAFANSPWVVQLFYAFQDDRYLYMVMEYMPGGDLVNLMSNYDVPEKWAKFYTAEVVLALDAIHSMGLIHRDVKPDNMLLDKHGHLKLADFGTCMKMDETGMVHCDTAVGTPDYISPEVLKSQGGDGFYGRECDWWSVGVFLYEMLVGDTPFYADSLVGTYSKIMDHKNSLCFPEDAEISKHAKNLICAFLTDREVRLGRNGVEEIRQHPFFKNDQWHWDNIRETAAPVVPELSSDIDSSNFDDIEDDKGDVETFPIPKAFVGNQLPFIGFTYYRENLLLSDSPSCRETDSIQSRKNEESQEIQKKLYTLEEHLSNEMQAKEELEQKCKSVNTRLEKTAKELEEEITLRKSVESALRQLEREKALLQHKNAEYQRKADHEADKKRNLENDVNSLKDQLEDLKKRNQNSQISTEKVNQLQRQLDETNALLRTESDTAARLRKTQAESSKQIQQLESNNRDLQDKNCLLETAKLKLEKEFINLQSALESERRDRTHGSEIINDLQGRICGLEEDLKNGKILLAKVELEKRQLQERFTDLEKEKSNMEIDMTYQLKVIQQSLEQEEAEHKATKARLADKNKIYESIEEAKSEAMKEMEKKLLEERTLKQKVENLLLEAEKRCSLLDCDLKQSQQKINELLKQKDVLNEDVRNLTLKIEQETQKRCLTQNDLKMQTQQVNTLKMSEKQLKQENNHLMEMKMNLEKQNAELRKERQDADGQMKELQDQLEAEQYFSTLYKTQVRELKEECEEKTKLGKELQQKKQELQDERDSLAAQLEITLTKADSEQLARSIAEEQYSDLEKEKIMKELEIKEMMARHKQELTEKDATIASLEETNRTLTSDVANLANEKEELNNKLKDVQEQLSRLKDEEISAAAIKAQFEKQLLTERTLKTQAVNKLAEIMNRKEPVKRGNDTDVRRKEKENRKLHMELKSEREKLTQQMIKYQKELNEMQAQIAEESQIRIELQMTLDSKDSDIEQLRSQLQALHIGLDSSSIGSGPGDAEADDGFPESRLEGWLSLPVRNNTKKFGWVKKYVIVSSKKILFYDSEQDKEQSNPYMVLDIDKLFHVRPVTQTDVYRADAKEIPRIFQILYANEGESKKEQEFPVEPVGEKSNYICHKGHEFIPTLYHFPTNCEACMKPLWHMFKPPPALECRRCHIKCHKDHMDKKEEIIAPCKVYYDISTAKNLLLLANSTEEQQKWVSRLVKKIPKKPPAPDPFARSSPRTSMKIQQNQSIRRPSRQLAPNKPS
row,IC50 [nM],SMILES
1,0.2 to 2,"O=C(NC1CC2(C1)CC(c1n[nH]c(=O)c3ccccc13)C2)c1cnn2cc(OCC(O)C(F)(F)F)ccc12 [Example 107, N-((aR)-6-(4-oxo-3,4-dihydrophthalazin-1-yl)spiro[3.3]heptan-2-yl)-6-(3,3,3-trifluoro-2-hydroxypropoxy)pyrazolo[1,5-a]pyridine-3-carboxamide]"
2,2.01 to 5,"COc1cccc(-n2cc(C(=O)NC3CC4(C3)CC(c3n[nH]c(=O)c5ccccc35)C4)cn2)c1 [Example 108, 1-(3-methoxyphenyl)-N-((aR)-6-(4-oxo-3,4-dihydrophthalazin-1-yl)spiro[3.3]heptan-2-yl)-1H-pyrazole-4-carboxamide]"
3,2.01 to 5,"O=C(NC1CC2(C1)CC(c1n[nH]c(=O)c3ccccc13)C2)c1cnn(Cc2ccccc2)c1 [Example 109, 1-benzyl-N-((aR)-6-(4-oxo-3,4-dihydrophthalazin-1-yl)spiro[3.3]heptan-2-yl)-1H-pyrazole-4-carboxamide]"
4,15.1 to 100,"CC(C)(O)COc1ccc2c(C(=O)NC3CC4(C3)CC(c3n[nH]c(=O)c5ccccc35)C4)cnn2c1C(N)=O [Example 110, 6-(2-hydroxy-2-methylpropoxy)-N3-((aR)-6-(4-oxo-3,4-dihydrophthalazin-1-yl)spiro[3.3]heptan-2-yl)pyrazolo[1,5-a]pyridine-3,7-dicarboxamide]"
5,15.1 to 100,"N#Cc1c(O)ccc2c(C(=O)NC3CC4(C3)CC(c3n[nH]c(=O)c5ccccc35)C4)cnn12 [Example 111, 7-cyano-6-hydroxy-N-((aR)-6-(4-oxo-3,4-dihydrophthalazin-1-yl)spiro[3.3]heptan-2-yl)pyrazolo[1,5-a]pyridine-3-carboxamide]"
6,2.01 to 5,"Cc1c(OCC(C)(C)O)ccc2c(C(=O)NC3CC4(C3)CC(c3n[nH]c(=O)c5ccccc35)C4)cnn12 [Example 112, 6-(2-hydroxy-2-methylpropoxy)-7-methyl-N-((aR)-6-(4-oxo-3,4-dihydrophthalazin-1-yl)spiro[3.3]heptan-2-yl)pyrazolo[1,5-a]pyridine-3-carboxamide]"
7,2.01 to 5,"COCc1c(OCC(C)(C)O)ccc2c(C(=O)NC3CC4(C3)CC(c3n[nH]c(=O)c5ccccc35)C4)cnn12 [Example 113, 6-(2-hydroxy-2-methylpropoxy)-7-(methoxymethyl)-N-((aR)-6-(4-oxo-3,4-dihydrophthalazin-1-yl)spiro[3.3]heptan-2-yl)pyrazolo[1,5-a]pyridine-3-carboxamide]"
8,2.01 to 5,"Cc1c(C(=O)NC2CC3(C2)CC(c2n[nH]c(=O)c4ccccc24)C3)nnn1-c1ccccc1 [Example 114, 5-methyl-N-((aR)-6-(4-oxo-3,4-dihydrophthalazin-1-yl)spiro[3.3]heptan-2-yl)-1-phenyl-1H-1,2,3-triazole-4-carboxamide]"
9,2.01 to 5,"COc1ccc(-n2nnc(C(=O)NC3CC4(C3)CC(c3n[nH]c(=O)c5ccccc35)C4)c2C)cc1 [Example 115, 1-(4-methoxyphenyl)-5-methyl-N-((aR)-6-(4-oxo-3,4-dihydrophthalazin-1-yl)spiro[3.3]heptan-2-yl)-1H-1,2,3-triazole-4-carboxamide]"
10,2.01 to 5,"COc1cccc(-n2cc(C(=O)NC3CC4(C3)CC(c3n[nH]c(=O)c5ccccc35)C4)nn2)c1 [Example 116, 1-(3-methoxyphenyl)-N-((aR)-6-(4-oxo-3,4-dihydrophthalazin-1-yl)spiro[3.3]heptan-2-yl)-1H-1,2,3-triazole-4-carboxamide]"
11,15.1 to 100,"COc1ccccc1-n1nnc(C(=O)NC2CC3(C2)CC(c2n[nH]c(=O)c4ccccc24)C3)c1C [Example 117, 1-(2-methoxyphenyl)-5-methyl-N-((aR)-6-(4-oxo-3,4-dihydrophthalazin-1-yl)spiro[3.3]heptan-2-yl)-1H-1,2,3-triazole-4-carboxamide]"
12,15.1 to 100,"O=C(NC1CC2(C1)CC(c1n[nH]c(=O)c3ccccc13)C2)c1noc(-c2ccc(F)cc2)n1 [Example 118, 5-(4-fluorophenyl)-N-((aR)-6-(4-oxo-3,4-dihydrophthalazin-1-yl)spiro[3.3]heptan-2-yl)-1,2,4-oxadiazole-3-carboxamide]"
13,2.01 to 5,"Cc1cccc2c(C(=O)N[C@H]3CC4(C3)C[C@H](c3n[nH]c(=O)c5ccccc53)C4)cnn12 (stereo partly drawn) [Example 123, 7-methyl-N-((aR)-6-(4-oxo-3,4-dihydrophthalazin-1-yl)spiro[3.3]heptan-2-yl)pyrazolo[1,5-a]pyridine-3-carboxamide]"
14,15.1 to 100,"COc1c(C(=O)NC2CC3(C2)CC(c2n[nH]c(=O)c4ccccc24)C3)nc2ccccn12 (stereo not drawn) [Example 124, 3-methoxy-N-((αR)-6-(4-oxo-3,4-dihydrophthalazin-1-yl)spiro[3.3]heptan-2-yl)imidazo[1,2-α]pyridine-2-carboxamide]"
15,2.01 to 5,"O=C(NC1CC2(C1)CC(c1n[nH]c(=O)c3ccccc13)C2)c1cnn2c(C3CC3)c(OCc3ccccc3)ccc12 (stereo not drawn) [Example 125, 6-(benzyloxy)-7-cyclopropyl-N-((αR)-6-(4-oxo-3,4-dihydrophthalazin-1-yl)spiro[3.3]heptan-2-yl)pyrazolo[1,5-α]pyridin-3-carboxamide]"
16,0.2 to 2,"Cc1c(OCc2ccccc2)ccc2c(C(=O)NC3CC4(C3)CC(c3n[nH]c(=O)c5ccccc35)C4)cnn12 (stereo not drawn) [Example 126, 6-(benzyloxy)-7-methyl-N-((αR)-6-(4-oxo-3,4-dihydrophthalazin-1-yl)spiro[3.3]heptan-2-yl)pyrazolo[1,5-α]pyridine-3-carboxamide]"
17,0.2 to 2,"N#Cc1c(OCc2ccccc2)ccc2c(C(=O)NC3CC4(C3)CC(c3n[nH]c(=O)c5ccccc35)C4)cnn12 (stereo not drawn) [Example 127, 6-(benzyloxy)-7-cyano-N-((αR)-6-(4-oxo-3,4-dihydrophthalazin-1-yl)spiro[3.3]heptan-2-yl)pyrazolo[1,5-α]pyridine-3-carboxamide]"

row,SMILES,IC50 [nM]
1,"O=C(N[C@H]1CC2(C1)C[C@H](c1n[nH]c(=O)c3ccccc31)C2)c1cnn2cc(OC[C@@H](O)C(F)(F)F)ccc12 (stereo partly drawn) [Example 119, N-((aR)-6-(4-oxo-3,4-dihydrophthalazin-1-yl)spiro[3.3]heptan-2-yl)-6-(3,3,3-trifluoro-2-hydroxypropoxy)pyrazolo[1,5-a]pyridine-3-carboxamide]",0.2 to 2
2,"O=C(N[C@H]1CC2(C1)C[C@H](c1n[nH]c(=O)c3ccccc31)C2)c1cnn2cc(OC[C@@H](O)C(F)(F)F)ccc12 (stereo partly drawn) [Example 120, N-((aR)-6-(4-oxo-3,4-dihydrophthalazin-1-yl)spiro[3.3]heptan-2-yl)-6-(3,3,3-trifluoro-2-hydroxypropoxy)pyrazolo[1,5-a]pyridine-3-carboxamide]",0.2 to 2
3,"O=C(N[C@H]1CC2(C1)C[C@H](c1n[nH]c(=O)c3ccccc31)C2)c1cnn2cc(O[C@@H]3CCOC3)ccc12 (stereo partly drawn) [Example 121, N-((aR)-6-(4-oxo-3,4-dihydrophthalazin-1-yl)spiro[3.3]heptan-2-yl)-6-((tetrahydrofuran-3-yl)oxy)pyrazolo[1,5-a]pyridine-3-carboxamide]",0.2 to 2
4,"O=C(N[C@H]1CC2(C1)C[C@H](c1n[nH]c(=O)c3ccccc31)C2)c1cnn2cc(O[C@@H]3CCOC3)ccc12 (stereo partly drawn) [Example 122, N-((aR)-6-(4-oxo-3,4-dihydrophthalazin-1-yl)spiro[3.3]heptan-2-yl)-6-((tetrahydrofuran-3-yl)oxy)pyrazolo[1,5-a]pyridine-3-carboxamide]",0.2 to 2
